Like-named read-outs stand apart in the source and are kept apart here. Marks after values point to notes of the source that are not given here. Each block holds one compound with its values, some of them ahead of it.
Columns and labels:
[1] = system: HepG2 cells; experiment: Cell viability (PI), IC50, control HepG2 cells; assay type: cell-based; conditions: Homo sapiens; control non-transduced HepG2; 24 h; unit inferred, tested range in µM; read-out: IC50 (cell viability), C
[2] = system: HepG2 cells transduced with AdCYP2C9; experiment: Cell viability (PI), IC50, AdCYP2C9-HepG2; assay type: cell-based; conditions: Homo sapiens, unit inferred, tested range in µM
[3] = system: HepG2 cells transduced with AdCYP2C9; experiment: HCS hepatotoxicity assay (MEC, TR), AdCYP2C9-HepG2; assay type: cell-based, human; conditions: 24 h; for TR: TR = 100 x Cmax/lowest MEC; for MEC Apoptosis / MEC Calcium / MEC MMP / MEC Mitochondrial superoxide / MEC ROS: unit inferred, tested range in µM
Protocol: (§1) For subculturing purposes, cells were detached by treatment with 0.25% trypsin/0.02% EDTA at 37 °C. For the adenovirus infection studies, cells were seeded in 96-well plates (5000 cells/well) and adenovirus-containing medium was added 48 h later. After 24 h, cells were transferred to the adenovirus-free medium and cultured for an additional 24-h period prior to the incubations performed with the test chemicals. To optimise the expression of the functional enzymes in the adenovirus-transduced HepG2 (Ad-HepG2) cells, different doses (MOI, multiplicity of infection, defined as plaque formation units per cell) of each adenovirus were tested.
(§2) The drugs included in the study were chosen based on previous information about their hepatotoxicity. Information on the potential mechanisms implicated in the toxicity of each compound and the major enzymes involved in their metabolism is summarised in Table 1. HepG2 or Ad-HepG2 (48 h post-infection) cells were exposed for 24 h to eight concentrations of the tested compounds. Each experimental condition was repeated independently three times (with three wells measured each time). The stock solutions of compounds were prepared in DMSO and were conveniently diluted in the culture medium to obtain the desired final concentrations. The final DMSO concentration in the culture medium was 0.5% (v/v), and the control cultures were treated with the same amount of solvent.
(§3) Following treatments, cells were simultaneously loaded with several fluorescent dyes to measure multiple biomarkers of cell toxicity. […] Information about the probes is summarised in Supplementary Table S2.
(§4) After incubating with dyes, cells were imaged by the Scan^R system (Olympus, Germany). Dyes were excited, and their fluorescence was monitored at the excitation and emission wavelengths at appropriate filter settings. The collected images were analysed using the Scan^R analysis module, which allows the simultaneous quantification of subcellular structures that are stained by different fluorescent probes.

[4] = system: HepG2 cells; conditions: human, 24 h
Protocol: as §1, §2, §3, §4

[5] = ref Atienzar et al. ([2014]), Garside et al. ([2014]), Tolosa et al. ([2012b]); cited from earlier work
[6] = cited from earlier work; for Bioactivation / Enzyme: major enzyme(s) involved in the bioactivation (denoted as *) or detoxification of the drug: previous information; for Toxicity (mechanisms of toxicity): ref Ashrafian et al. [2007], Donato et al. [2009], Fromenty and Pessayre [1997], Rolo et al. [2000], Tolosa et al. [2012b]
[7] = system: HepG2 cells transduced with AdCYP3A4; experiment: Cell viability (PI), IC50, AdCYP3A4-HepG2; assay type: cell-based; conditions: Homo sapiens, unit inferred, tested range in µM
Protocol: as §1, §2, §3, §4

[8] = system: HepG2 cells transduced with AdCYP3A4; experiment: HCS hepatotoxicity assay (MEC, TR), AdCYP3A4-HepG2; assay type: cell-based, human; conditions: 24 h; for TR: TR = 100 x Cmax/lowest MEC; for MEC Apoptosis / MEC Calcium / MEC MMP / MEC Mitochondrial superoxide / MEC ROS: unit not given, tested range in µM

IC50 [1]: > 1200 µM | IC50 ([2]; ADV CYP2C9 x1, 24 h, read-out: IC50 (cell viability), ADV dose x1): > 1200 µM | IC50 ([2]; ADV CYP2C9 x4, 24 h, read-out: IC50 (cell viability), ADV dose x4): 1160 µM | IC50 ([2]; ADV CYP2C9 x10, 24 h, read-out: IC50 (cell viability), ADV dose x10): 846 µM | MEC Calcium [4]: 800 | MEC MMP [4]: >1200 | MEC Mitochondrial superoxide [4]: 800 | MEC ROS [4]: 1200 | TR [4]: 10.3
Compound: O=C(O)COc1ccc(C(=O)c2cccs2)c(Cl)c1Cl [Tienilic acid]
TR ([3]; AdCYP 2C9 1x): 13.8 | MEC Apoptosis ([3]; AdCYP 2C9 1x): 600 µM | MEC Calcium ([3]; AdCYP 2C9 1x): 600 µM | MEC MMP ([3]; AdCYP 2C9 1x): > 1200 µM | MEC Mitochondrial superoxide ([3]; AdCYP 2C9 1x): 600 µM | MEC ROS ([3]; AdCYP 2C9 1x): 800 µM | TR ([3]; AdCYP 2C9 4x): 20.7 | MEC Apoptosis ([3]; AdCYP 2C9 4x): 400 µM | MEC Calcium ([3]; AdCYP 2C9 4x): 400 µM | MEC MMP ([3]; AdCYP 2C9 4x): > 1200 µM | MEC Mitochondrial superoxide ([3]; AdCYP 2C9 4x): 400 µM | MEC ROS ([3]; AdCYP 2C9 4x): 600 µM | TR ([3]; AdCYP 2C9 10x): 41.3 | MEC Apoptosis ([3]; AdCYP 2C9 10x): 200 µM | MEC Calcium ([3]; AdCYP 2C9 10x): 200 µM | MEC MMP ([3]; AdCYP 2C9 10x): > 1200 µM | MEC Mitochondrial superoxide ([3]; AdCYP 2C9 10x): 400 µM | MEC ROS ([3]; AdCYP 2C9 10x): 400 µM | MEC Apoptosis [4]: 1200 µM | Cmax [5]: 82.7 µM | Bioactivation [6]: Yes | Enzyme: major enzyme(s) involved in the bioactivation (denoted as *) or detoxification of the drug [6]: CYP2C9* | Toxicity (mechanisms of toxicity) [6]: CB, OS

IC50 [1]: 213 µM | IC50 ([7]; ADV CYP3A4 x1, 24 h, read-out: IC50 (cell viability), ADV dose x1): 86 µM | IC50 ([7]; ADV CYP3A4 x4, 24 h, read-out: IC50 (cell viability), ADV dose x4): 76 µM | IC50 ([7]; ADV CYP3A4 x10, 24 h, read-out: IC50 (cell viability), ADV dose x10): < 50 µM | MEC Calcium [4]: 100 | MEC MMP [4]: 200 | MEC Mitochondrial superoxide [4]: 200 | MEC ROS [4]: 100 | TR [4]: 6.4
Compound: Cc1c(C)c2c(c(C)c1O)CCC(C)(COc1ccc(CC3SC(=O)NC3=O)cc1)O2 (stereo not shown) [Troglitazone]
TR ([8]; AdCYP 3A4 1x): 12.8 | MEC Apoptosis ([8]; AdCYP 3A4 1x): 100 | MEC Calcium ([8]; AdCYP 3A4 1x): 75 | MEC MMP ([8]; AdCYP 3A4 1x): 200 | MEC Mitochondrial superoxide ([8]; AdCYP 3A4 1x): 200 | MEC ROS ([8]; AdCYP 3A4 1x): 50 | TR ([8]; AdCYP 3A4 4x): 12.8 | MEC Apoptosis ([8]; AdCYP 3A4 4x): 75 | MEC Calcium ([8]; AdCYP 3A4 4x): 50 | MEC MMP ([8]; AdCYP 3A4 4x): 200 | MEC Mitochondrial superoxide ([8]; AdCYP 3A4 4x): 75 | MEC ROS ([8]; AdCYP 3A4 4x): 50 | TR ([8]; AdCYP 3A4 10x): 12.8 | MEC Apoptosis ([8]; AdCYP 3A4 10x): 50 | MEC Calcium ([8]; AdCYP 3A4 10x): 50 | MEC MMP ([8]; AdCYP 3A4 10x): 150 | MEC Mitochondrial superoxide ([8]; AdCYP 3A4 10x): 50 | MEC ROS ([8]; AdCYP 3A4 10x): 50 | MEC Apoptosis [4]: 100 µM | Bioactivation [6]: Yes | Enzyme: major enzyme(s) involved in the bioactivation (denoted as *) or detoxification of the drug [6]: CYP3A4* | Toxicity (mechanisms of toxicity) [6]: MI, OS | DILI category ([6]; ref Gustafsson et al. ([2014])): Severe
